The values below come from patent US8241903B2, “Catecholamine receptor modulation” (Yeda Research and Development Co., Ltd., priority 2006, dated 2012).

The assay deals with dopamine receptors 3 and 5 in CD34+/CD38-/low cells. Description: In vitro 3-day incubation with GM-CSF, dopamine receptor staining. Type of assay: cell-based, human. As to conditions: 3-day incubation with GM-CSF 5 ng/ml; MPB, normal BM or cord blood cells. The method, then: (vi) Flow cytometry analysis. Phenotypes of human and murine cells were examined by immunostaining, followed by flow cytometry analysis on FACSCalibur (Becton Dickinson, San Jose, Calif.) with CellQuest software. Single cell suspension were prepared in PBS containing 0.01% sodium azide and 1% FCS. Human plasma and mouse IgG were used to block human and murine Fc-receptors. Isotype-matched control antibodies were used to exclude false positive cells. Staining was performed in 4° C. for 30 minutes. Engraftment of human cells was examined by staining with mouse anti-human CD45-Fitc, CD38-PE and CD34-APC (Becton Dickinson). Human leukocytes were gated according to their expression of the pan-leukocyte marker CD45, and amongst this population the percentage of CD34+/CD38−/low primitive cells was determined. In several experiments dopamine receptor expression on CD34+/CD38−/low was tested, cells were triple stained with mouse anti-human CD38-PE, CD34-APC and rabbit anti human dopamine receptor 3 or 5 (Calbiochem, Nottingham, UK) followed by secondary antibodies goat anti rabbit alexa 488 (Molecular Probes, Eugene, Oreg.). After staining, cells were washed in FACS buffer and analyzed by fluorescence-activated cell sorting (FACSCalibur and CellQuest software, Becton Dickinson). […]

“GM-CSF: myeloid cytokine, granulocyte/macrophage-colony stimulating factor”: the “levels of dopamine receptors 3 and 5 in CD34+/CD38-/low cells” value is given as “up regulated”.
